This is an account of results in patent US7598258B2, “Quinoline derivatives and quinazoline derivatives inhibiting autophosphorylation of macrophage colony stimulating factor receptor” (Kirin Beer Kabushiki Kaisha, priority 2002, dated 2009).

The target in the assay is T1, Human KDR (Homo sapiens, UniProt P35968).
T1 construct: expressed in transfected cells; host or cells: NIH3T3 cells (mouse fibroblasts)
The assay is described as follows: Inhibition of KDR phosphorylation in human KDR-transfected NIH3T3 cells (ELISA). The format is cell-based. The settings on record: for Selection ratio (KDR phosphorylation IC50 / c-fms phosphorylation IC50): class 0-3; for IC50: human KDR-transfected NIH3T3 cells, VEGF 100 ng/ml, ELISA, read-out: KDR phosphorylation 50% inhibitory concentration (IC50). As to the method:
Human KDR-transfected NIH3T3 cells (Sawano A et al., Cell Growth & Differentiation, 7, 213-221 (1996)) were cultured in a DMEM medium containing 10% fetal calf serum (purchased from GIBCO BRL) within a 5% carbon dioxide incubator until 50 to 70% confluent. The harvested cells were seeded into wells, containing the same medium, in a collagen type 1 coat 96-well flat-bottom plate in an amount of 1.5×10^4 per well, and cultured at 37° C. overnight. The medium was replaced with a 0.1% fetal calf serum-containing DMEM medium. The test compound dissolved in dimethyl sulfoxide was added to each well, and the cultivation was continued at 37° C. for additional one hr. A human recombinant vascular endothelial growth factor (hereinafter abbreviated to “VEGF”) was added to a final concentration of 100 ng/ml, followed by stimulation of cells at 37° C. for 2 min. The medium was removed, and the cells were washed with phosphate buffered saline (pH 7.4). A solubilization buffer (50 μl) (20 mM HEPES (pH 7.4), 150 mM NaCl, 0.2% Triton X-100, 10% glycerol, 5 mM sodium orthovanadylate, 5 mM disodium ethylenediaminetetraacetate, and 2 mM Na4P2O7) was then added thereto. The mixture was shaken at 4° C. for 2 hr to prepare a cell extract.
Separately, phosphate buffered saline (50 μl, pH 7.4) containing 5 μg/ml of anti-phospho-tyrosine antibody (PY20; purchased from Transduction Laboratories) was added to a microplate for ELISA (Maxisorp; purchased from NUNC), followed by standing at 4° C. overnight to be immobilized on the wells. After washing of the plate, 300 μl of a blocking solution was added, followed by standing at room temperature for 2 hr to perform blocking. After washing, the whole cell extract was transferred and was allowed to stand at 4° C. overnight. After washing, an anti-KDR antibody (purchased from Santa Cruz Biotechnology) was allowed to react at room temperature for one hr. Further, after washing, a peroxidase-labeled anti-rabbit Ig antibody (purchased from Amersham) was allowed to react at room temperature for one hr. After washing, a chromophoric substrate for peroxidase (purchased from Sumitomo Bakelite Co., Ltd.) was added thereto to initiate a reaction. After a suitable level of color development, a reaction termination solution was added to stop the reaction, and the absorbance at 450 nm was measured with a microplate reader. The KDR phosphorylation activity for each well was determined by presuming the absorbance without the addition of the test compound and with the addition of VEGF to be 100% KDR phosphorylation activity and the absorbance without the addition of the test compound and VEGF to be 0% KDR phosphorylation activity. The concentration of the test compound was varied on several levels, the KDR phosphorylation inhibitory rate was determined for each case, and the concentration of the test compound necessary for inhibiting 50% of KDR phosphorylation (IC50) was calculated.

T1 sequence (P35968 20-1356): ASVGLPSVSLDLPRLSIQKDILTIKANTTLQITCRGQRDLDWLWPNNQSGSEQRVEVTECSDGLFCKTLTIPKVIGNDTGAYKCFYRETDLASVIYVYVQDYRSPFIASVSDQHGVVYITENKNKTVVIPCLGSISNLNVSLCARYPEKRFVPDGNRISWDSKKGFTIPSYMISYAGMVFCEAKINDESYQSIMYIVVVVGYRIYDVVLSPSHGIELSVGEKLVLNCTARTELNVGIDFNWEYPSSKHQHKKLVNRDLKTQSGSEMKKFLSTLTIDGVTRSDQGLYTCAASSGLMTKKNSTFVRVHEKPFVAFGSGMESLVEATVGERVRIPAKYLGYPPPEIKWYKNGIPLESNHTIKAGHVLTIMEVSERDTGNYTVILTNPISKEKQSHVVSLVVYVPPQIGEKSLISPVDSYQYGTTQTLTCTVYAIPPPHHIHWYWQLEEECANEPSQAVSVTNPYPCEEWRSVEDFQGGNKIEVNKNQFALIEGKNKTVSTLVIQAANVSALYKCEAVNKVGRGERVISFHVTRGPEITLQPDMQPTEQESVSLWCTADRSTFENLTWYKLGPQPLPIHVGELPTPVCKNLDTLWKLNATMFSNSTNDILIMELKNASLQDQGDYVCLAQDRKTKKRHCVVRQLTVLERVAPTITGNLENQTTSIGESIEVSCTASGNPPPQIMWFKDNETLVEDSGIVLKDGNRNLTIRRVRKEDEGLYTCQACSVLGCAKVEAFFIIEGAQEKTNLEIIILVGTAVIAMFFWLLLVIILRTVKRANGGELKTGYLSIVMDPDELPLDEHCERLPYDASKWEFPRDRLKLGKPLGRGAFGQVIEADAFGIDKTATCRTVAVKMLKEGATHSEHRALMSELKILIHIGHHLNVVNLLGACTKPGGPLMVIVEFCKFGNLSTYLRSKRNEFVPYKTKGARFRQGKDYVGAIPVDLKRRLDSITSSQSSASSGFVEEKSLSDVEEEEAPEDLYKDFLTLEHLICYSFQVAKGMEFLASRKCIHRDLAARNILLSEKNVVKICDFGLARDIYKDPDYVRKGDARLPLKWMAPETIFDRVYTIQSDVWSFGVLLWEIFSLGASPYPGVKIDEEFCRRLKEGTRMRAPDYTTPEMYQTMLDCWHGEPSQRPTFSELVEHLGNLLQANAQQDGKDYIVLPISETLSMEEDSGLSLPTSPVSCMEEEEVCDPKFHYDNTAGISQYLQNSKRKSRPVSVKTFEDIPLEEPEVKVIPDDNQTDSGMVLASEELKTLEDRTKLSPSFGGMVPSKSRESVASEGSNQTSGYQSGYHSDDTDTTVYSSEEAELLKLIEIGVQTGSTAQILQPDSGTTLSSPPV

With `COc1cc2nccc(Oc3cc(C)c(NC(=O)N[C@H](C)c4cccc(Br)c4)cc3C)c2cc1OC` [Example 56, N-[(1R)-1-(3-Bromophenyl)ethyl]-N′-{4-[(6,7-dimethoxy-4-quinolyl)oxy]-2,5-dimethylphenyl}urea], the “Selection ratio (KDR phosphorylation IC50 / c-fms phosphorylation IC50)” value was 0 (KDR phosphorylation 50% inhibitory concentration [μM]/c-fms phosphorylation 50% inhibitory concentration [μM] was less than 5) and the IC50 was determined as 9.6 nM.

With `COc1cc2nccc(Oc3ccc(NC(=O)N[C@H](C)c4cccc(Br)c4)cc3Cl)c2cc1OC` [Example 57, N-[(1R)-1-(3-Bromophenyl)ethyl]-N′-{3-chloro-4-[(6,7-dimethoxy-4-quinolyl)oxy]phenyl}urea], the “Selection ratio (KDR phosphorylation IC50 / c-fms phosphorylation IC50)” value was 0 (KDR phosphorylation 50% inhibitory concentration [μM]/c-fms phosphorylation 50% inhibitory concentration [μM] was less than 5) and the IC50 came to 3.6 nM.

For `COc1cc2nccc(Oc3ccc(NC(=O)N[C@H](C)c4cccc(Br)c4)c(C)c3)c2cc1OC` [Example 58, N-[(1R)-1-(3-Bromophenyl)ethyl]-N′-{4-[(6,7-dimethoxy-4-quinolyl)oxy]-2-methylphenyl}urea], the “Selection ratio (KDR phosphorylation IC50 / c-fms phosphorylation IC50)” value is 0 (KDR phosphorylation 50% inhibitory concentration [μM]/c-fms phosphorylation 50% inhibitory concentration [μM] was less than 5) and the IC50 is 2.1 nM.

With `COc1cc(Oc2ccnc3cc(OC)c(OC)cc23)ccc1NC(=O)N[C@H](C)c1cccc(Br)c1` [Example 59, N-[(1R)-1-(3-Bromophenyl)ethyl]-N′-{4-[(6,7-dimethoxy-4-quinolyl)oxy]-2-methoxyphenyl}urea], the “Selection ratio (KDR phosphorylation IC50 / c-fms phosphorylation IC50)” value is 0 (KDR phosphorylation 50% inhibitory concentration [μM]/c-fms phosphorylation 50% inhibitory concentration [μM] was less than 5) and the IC50 was 8.7 nM.

With `COc1cc2nccc(Oc3ccc(NC(=O)N[C@H](C)c4cccc(Br)c4)c(C(F)(F)F)c3)c2cc1OC` [Example 60, N-[(1R)-1-(3-Bromophenyl)ethyl]-N′-[4-[(6,7-dimethoxy-4-quinolyl)oxy]-2-(trifluoromethyl)phenyl]urea], the “Selection ratio (KDR phosphorylation IC50 / c-fms phosphorylation IC50)” value is 0 (KDR phosphorylation 50% inhibitory concentration [μM]/c-fms phosphorylation 50% inhibitory concentration [μM] was less than 5) and the IC50 was found to be 1.9 nM.

With `COc1cc2nccc(Oc3ccc(NC(=O)N[C@H](C)c4cccc(Br)c4)cc3OC)c2cc1OC` [Example 61, N-[(1R)-1-(3-Bromophenyl)ethyl]-N′-{4-[(6,7-dimethoxy-4-quinolyl)oxy]-3-methoxyphenyl}urea], the “Selection ratio (KDR phosphorylation IC50 / c-fms phosphorylation IC50)” value was 0 (KDR phosphorylation 50% inhibitory concentration [μM]/c-fms phosphorylation 50% inhibitory concentration [μM] was less than 5) and the IC50 was 19.2 nM.

On to `COc1cc2nccc(Oc3ccc(NC(=O)N[C@H](C)c4cccc(Br)c4)c(C)c3C)c2cc1OC` [Example 62, N-[(1R)-1-(3-Bromophenyl)ethyl]-N′-{4-[(6,7-dimethoxy-4-quinolyl)oxy]-2,3-dimethylphenyl}urea], for which the “Selection ratio (KDR phosphorylation IC50 / c-fms phosphorylation IC50)” value was 0 (KDR phosphorylation 50% inhibitory concentration [μM]/c-fms phosphorylation 50% inhibitory concentration [μM] was less than 5) and the IC50 stood at 2.7 nM.

As to `COc1cc2nccc(Oc3ccc(NC(=O)N[C@H](C)c4cccc(Br)c4)c(F)c3)c2cc1OC` [Example 63, N-[(1R)-1-(3-Bromophenyl)ethyl]-N′-{4-[(6,7-dimethoxy-4-quinolyl)oxy]-2-fluorophenyl}urea], the “Selection ratio (KDR phosphorylation IC50 / c-fms phosphorylation IC50)” value is 0 (KDR phosphorylation 50% inhibitory concentration [μM]/c-fms phosphorylation 50% inhibitory concentration [μM] was less than 5) and the IC50 was determined as 2.6 nM.

For `COc1cc2c(Oc3ccc(NC(=O)NC(C)c4ccc(F)cc4)cc3F)ccnc2cc1OCCCN1CCOCC1` (centres unmarked) [Example 64, N-(3-Fluoro-4-{[6-methoxy-7-(3-morpholinopropoxy)-4-quinolyl]oxy}phenyl)-N′-[1-(4-fluorophenyl)ethyl]urea], the “Selection ratio (KDR phosphorylation IC50 / c-fms phosphorylation IC50)” value is 0 (KDR phosphorylation 50% inhibitory concentration [μM]/c-fms phosphorylation 50% inhibitory concentration [μM] was less than 5) and the IC50 was determined as 9.8 nM.

Turning to `COc1cc2c(Oc3ccc(NC(=O)NC(C)c4ccc(F)c(F)c4)cc3F)ccnc2cc1OCCCN1CCOCC1` (centres unmarked) [Example 65, N-[1-(3,4-Difluorophenyl)ethyl]-N′-(3-fluoro-4-{[6-methoxy-7-(3-morpholinopropoxy)-4-quinolyl]oxy}phenyl)urea], the “Selection ratio (KDR phosphorylation IC50 / c-fms phosphorylation IC50)” value is 0 (KDR phosphorylation 50% inhibitory concentration [μM]/c-fms phosphorylation 50% inhibitory concentration [μM] was less than 5) and the IC50 was 31.9 nM.

Regarding `COc1cc2c(Oc3ccc(NC(=O)NC(C)c4ccc(F)cc4F)cc3F)ccnc2cc1OCCCN1CCOCC1` (centres unmarked) [Example 66, N-[1-(2,4-Difluorophenyl)ethyl]-N′-(3-fluoro-4-{[6-methoxy-7-(3-morpholinopropoxy)-4-quinolyl]oxy}phenyl)urea], the “Selection ratio (KDR phosphorylation IC50 / c-fms phosphorylation IC50)” value was 0 (KDR phosphorylation 50% inhibitory concentration [μM]/c-fms phosphorylation 50% inhibitory concentration [μM] was less than 5) and the IC50 was determined as 16.5 nM.

As to `COc1cc2c(Oc3ccc(NC(=O)NC(C)c4ccc(F)cc4)c(F)c3)ccnc2cc1OCCCN1CCOCC1` (centres unmarked) [Example 67, N-(2-Fluoro-4-{[6-methoxy-7-(3-morpholinopropoxy)-4-quinolyl]oxy}phenyl)-N′-[1-(4-fluorophenyl)ethyl]urea], the “Selection ratio (KDR phosphorylation IC50 / c-fms phosphorylation IC50)” value was 0 (KDR phosphorylation 50% inhibitory concentration [μM]/c-fms phosphorylation 50% inhibitory concentration [μM] was less than 5) and the IC50 is 2.9 nM.

Consider `COc1cc2c(Oc3ccc(NC(=O)NC(C)c4ccc(F)c(F)c4)c(F)c3)ccnc2cc1OCCCN1CCOCC1` (centres unmarked) [Example 68, N-[1-(3,4-Difluorophenyl)ethyl]-N′-(2-fluoro-4-{[6-methoxy-7-(3-morpholinopropoxy)-4-quinolyl]oxy}phenyl)urea], for which the “Selection ratio (KDR phosphorylation IC50 / c-fms phosphorylation IC50)” value is 0 (KDR phosphorylation 50% inhibitory concentration [μM]/c-fms phosphorylation 50% inhibitory concentration [μM] was less than 5) and the IC50 worked out at 5.6 nM.

As for `COc1cc2c(Oc3ccc(NC(=O)NC(C)c4ccc(F)cc4F)c(F)c3)ccnc2cc1OCCCN1CCOCC1` (centres unmarked) [Example 69, N-[1-(2,4-Difluorophenyl)ethyl]-N′-(2-fluoro-4-{[6-methoxy-7-(3-morpholinopropoxy)-4-quinolyl]oxy}phenyl)urea], the “Selection ratio (KDR phosphorylation IC50 / c-fms phosphorylation IC50)” value was 0 (KDR phosphorylation 50% inhibitory concentration [μM]/c-fms phosphorylation 50% inhibitory concentration [μM] was less than 5) and the IC50 turned out to be 5.2 nM.

Consider `COc1cc2nccc(Oc3ccc(NC(=O)NC(C)c4nccs4)c(F)c3)c2cc1OC` (centres unmarked) [Example 70, N-{4-[(6,7-Dimethoxy-4-quinolyl)oxy]-2-fluorophenyl}-N′-[1-(1,3-thiazol-2-yl)ethyl]urea], for which the “Selection ratio (KDR phosphorylation IC50 / c-fms phosphorylation IC50)” value was 2 (when the value was 10 or more) and the IC50 was 55.1 nM.

As for `COc1cc2nccc(Oc3ccc(NC(=O)N[C@@H](C)c4nccs4)c(F)c3)c2cc1OC` [Example 71, N-{4-[(6,7-Dimethoxy-4-quinolyl)oxy]-2-fluorophenyl}-N′-[(1S)-1-(1,3-thiazol-2-yl)ethyl]urea], the “Selection ratio (KDR phosphorylation IC50 / c-fms phosphorylation IC50)” value is 2 (when the value was 10 or more) and the IC50 came out at 39.9 nM.
